Measured values as given in publication PMC9718554, “Discovery of a fragment hit compound targeting D-Ala:D-Ala ligase of bacterial peptidoglycan biosynthesis” (Journal of Enzyme Inhibition and Medicinal Chemistry, 2022).
In brackets after ≈: the same amount, converted by molar mass. Read-outs that look alike come from different tables or passages of the source.

Tests used:
[1] = Solubility at tested concentrations in fragment library screening; assay type: physicochemical
Excerpt: (§1) Supplement IENZ_A_2149745_SM2502.zip/DDlB_CDR05_SI_20221103.xlsx, sheet "Fragment library screening" | column: Solubility at tested concentrations

[2] = target: T1, E. coli DdlB enzyme (D-alanine:D-alanine ligase) (Escherichia coli, UniProt P07862); experiment: biochemical; conditions: for remaining activity at 2100 µM: tested concentration 2.1 mM; for remaining activity at 2200 µM: tested concentration 2.2 mM; for remaining activity at 1800 µM: tested concentration 1.8 mM; for remaining activity at 2000 µM: tested concentration 2.0 mM; for remaining activity at 1700 µM: tested concentration 1.7 mM; for remaining activity at 5000 µM: at 5 mM; for remaining activity at 1900 µM: tested concentration 1.9 mM; for IC50: 700 μM D-Ala, 100 μM ATP, read-out: DdlB inhibition IC50
T1 construct: made in house; host or cells: E. coli

[3] = target: E. coli MurA enzyme (UDP-N-acetylglucosamine enolpyruvyl transferase) (Escherichia coli, UniProt P0A749); experiment: MurA inhibition assay (malachite green, deselection); conditions: read-out: MurA inhibition, RA (Residual Activity)
Chain of E. coli MurA enzyme (UDP-N-acetylglucosamine enolpyruvyl transferase) (P0A749 whole entry, the tested form may be a part): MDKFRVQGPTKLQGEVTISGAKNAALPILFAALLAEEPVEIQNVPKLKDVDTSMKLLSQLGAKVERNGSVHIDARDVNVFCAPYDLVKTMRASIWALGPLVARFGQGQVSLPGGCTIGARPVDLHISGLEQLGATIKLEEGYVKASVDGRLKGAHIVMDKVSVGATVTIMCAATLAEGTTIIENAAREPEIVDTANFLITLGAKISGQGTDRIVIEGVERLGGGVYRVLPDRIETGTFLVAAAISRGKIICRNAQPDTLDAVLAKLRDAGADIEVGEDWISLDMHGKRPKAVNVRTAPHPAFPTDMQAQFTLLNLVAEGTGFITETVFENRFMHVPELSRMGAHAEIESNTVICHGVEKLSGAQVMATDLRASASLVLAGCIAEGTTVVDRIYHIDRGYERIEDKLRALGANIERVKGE
Description: Inhibition of the enzyme was determined using an end-point malachite green assay by detecting the orthophosphate formed during the enzymatic reaction. […] The final DMSO concentration was 5%. […] A parallel experiment without the enzyme was performed to detect insoluble compounds under the assay conditions and subtracted from each measurement. All experiments were performed in duplicates. RAs were calculated with respect to blank experiments without tested compounds and with 5% DMSO.

[4] = Solubility at tested concentrations in the fragment library screening; assay type: physicochemical
Excerpt: as §1

E. coli ATCC 25922 = experiment: MIC by broth microdilution; assay type: cell-based; conditions: Escherichia coli, ATCC25922; E. coli ATCC 25922, 20 h at 35 °C; read-out: MIC
Description: (§2) The antibacterial activities of 3 were determined according to the European Committee for […] Susceptibility Testing recommendations and Clinical Laboratory Standards Institute protocol. Compound was tested against reference strains of E. coli and Staphylococcus aureus and against two mutant E. coli strains. E. coli D22 bears a mutation in the LpxC gene that increases membrane permeability, whereas E. coli N43 is an AcrA knockout strain (knockout of the cell membrane pump). […] The most plausible reason is the low on target activity of the hit fragment, however, also the poor penetration into the bacterial cell or efflux pumps effect cannot be ruled out. Although the lack of antibacterial activity is a limitation, hit compound 3 represents a fragment-sized starting point for the development of new compounds with increased DdlB inhibitory potency as well as antibacterial activity.
(§3) Minimum inhibitory concentrations (MICs) for 3 were determined by broth microdilution in Cation-adjusted Mueller-Hinton broth (MH) with TES, TREK Diagnostic Systems Ltd. against S. aureus ATCC 29213, E. coli ATCC 25922, E. coli N43 and E. coli D22. All of the experiments were performed in duplicate in 96-well plate format according to CLSI guidelines and European Committee for Antimicrobial Susceptibility Testing recommendations. The bacterial suspension of a specific bacterial strain was diluted with MH broth to obtain a final inoculum of 5 × 10^5 CFU/mL in the assay. Compound 3 dissolved in DMSO and inoculum were mixed together and incubated for 20 h at 35 °C. After incubation, the minimal inhibitory concentration (MIC) values were determined by visual inspection as the lowest dilution of compounds showing no turbidity. The MICs were determined against S. aureus (ATCC 29213), E. coli (ATCC 25922), E. coli N43, and E. coli D22 bacterial strains. D-Cycloserine was used as a positive control.

S. aureus ATCC 29213 = experiment: MIC by broth microdilution; assay type: cell-based; conditions: Staphylococcus aureus, ATCC29213; S. aureus ATCC 29213, 20 h at 35 °C; read-out: MIC
Description: as §2, §3

E. coli N43 = experiment: MIC by broth microdilution; assay type: cell-based; conditions: Escherichia coli, N43, 20 h
Description: as §2, §3

E. coli D22 = experiment: MIC by broth microdilution; assay type: cell-based; conditions: Escherichia coli, D22, 20 h
Description: as §2, §3

[5] = residual activity, read-out: DdlB RA
[6] = read-out: DdlB inhibition, RA (Residual Activity)

## CC1CCCC(NC(=O)c2ccc(Cl)cc2)C1C (stereo not drawn) [Compound Y502-2265]
[1]; tested concentration 2.3 mM
  Solubility at tested concentrations: not soluble
[2]; residual activity, tested concentration 2.3 mM, read-out: DdlB RA
  remaining activity at 2300 µM: 91%

## CN1CCN(S(=O)(=O)c2cccc3cccnc23)CC1 [Compound 8006-7667]
[1]; tested concentration 2.1 mM
  Solubility at tested concentrations: not soluble
[2]; [5]
  remaining activity at 2100 µM: 60%

## Cc1ccccc1-n1nnnc1C1(N(C)C)CCCC1 [Compound J034-0206]
[1]; tested concentration 2.2 mM
  Solubility at tested concentrations: not soluble
[2]; [5]
  remaining activity at 2200 µM: 91%

## O=S(=O)(Cc1ccc(Cl)cc1)N1CCOCC1 [Compound Y031-1160]
[1]; tested concentration 2.2 mM
  Solubility at tested concentrations: not soluble
[2]; [5]
  remaining activity at 2200 µM: 118%

## CC(C)Oc1n[nH]c(-c2ccc(Cl)cc2Cl)n1 [Compound V017-7311]
[1]; tested concentration 2.2 mM
  Solubility at tested concentrations: not soluble
[2]; [5]
  remaining activity at 2200 µM: 98%

## CCc1ccc(C2Nc3ccccc3S(=O)(=O)N2)cc1 (stereo not drawn) [Compound F475-0262]
[1]; tested concentration 2.1 mM
  Solubility at tested concentrations: not soluble
[2]; [5]
  remaining activity at 2100 µM: 68%

## O=C1COc2ccccc2N1Cc1ccc2c(c1)OCO2 [Compound 8018-5756]
[1]; tested concentration 1.8 mM
  Solubility at tested concentrations: not soluble
[2]; [5]
  remaining activity at 1800 µM: 103%

## CN(C(=O)c1cc[nH]n1)C1CC(C)(C)N(C)C(C)(C)C1 [Compound 8013-1135]
[1]; tested concentration 2.0 mM
  Solubility at tested concentrations: not soluble
[2]; [5]
  remaining activity at 2000 µM: -1.26%

## CC(C)(C)OC(=O)NCc1cccc(-c2cncs2)c1 [Compound V029-2538]
[1]; tested concentration 1.7 mM
  Solubility at tested concentrations: not soluble
[2]; [5]
  remaining activity at 1700 µM: 69%

## CCOc1ccc2c(n1)CCN(C(=O)c1ccccn1)C2 [Compound 6, (2-Ethoxy-7,8-dihydro-1,6-naphthyridin-6(5H)-yl)(pyridin-2-yl)methanone]
[3]
  remaining activity at 5000 µM: 104%
[2]; [6]
  remaining activity at 5000 µM: 25%
[2]; [5]
  remaining activity at 2100 µM: 44%

## Cc1ccccc1N(C)C(=O)Cc1noc2ccccc12 [Compound E207-0386]
[1]; tested concentration 2.1 mM
  Solubility at tested concentrations: not soluble
[2]; [5]
  remaining activity at 2100 µM: 102%

## CC1CCN(C(=O)CC2(n3cccc3)CCCCC2)CC1 [Compound Y042-5984]
[1]; tested concentration 1.7 mM
  Solubility at tested concentrations: not soluble
[2]; [5]
  remaining activity at 1700 µM: 90%

## OC1CCCc2c1[nH]c1ccc(Br)cc21 (stereo not drawn) [Compound 8010-6263]
[1]; tested concentration 1.9 mM
  Solubility at tested concentrations: not soluble
[2]; [5]
  remaining activity at 1900 µM: 29%

## COc1ccc(-n2c(C)ccc2C)nc1 [Compound 4]
[3]
  remaining activity at 5000 µM: 39%
[2]
  IC50: 1790 µM

## O=c1c(NCC2CCCO2)c(-c2ccccc2)c1=O (stereo not drawn) [Compound E470-0384]
[4]; tested concentration 1.9 mM
  Solubility at tested concentrations: not soluble
[2]; read-out: DdlB RA
  remaining activity at 1900 µM: 81%

## Nc1ccc2ncc(C(=O)O)c(O)c2c1 [Compound 7, 6-Amino-4-hydroxyquinoline-3-carboxylic acid]
[3]
  remaining activity at 5000 µM: 81%
[2]; [6]
  remaining activity at 5000 µM: 47%

## O=S(=O)(NC1CCCCCC1)c1ccc(F)cc1 [Compound Y030-0828]
[1]; tested concentration 2.0 mM
  Solubility at tested concentrations: not soluble
[2]; [5]
  remaining activity at 2000 µM: 89%

## Cc1ccc(S(=O)(=O)N(C)CC2CCOC2)c(C)c1 (stereo not drawn) [Compound S213-1641]
[1]; tested concentration 2.1 mM
  Solubility at tested concentrations: not soluble
[2]; [5]
  remaining activity at 2100 µM: 110%

## N[C@@H]1CON=C1O [D-Cyclo-serine, D-Cycloserine, reference compound]
E. coli ATCC 25922
  MIC: 64 µg/mL (≈ 627 µM)
S. aureus ATCC 29213
  MIC: 32 µg/mL (≈ 313 µM)
E. coli N43
  MIC: 32 µg/mL (≈ 313 µM)
E. coli D22
  MIC: 16 µg/mL (≈ 157 µM)
[2]
  IC50: 108 µM

## CCCNc1c(-c2ccc(C(C)C)cc2)c(=O)c1=O [Compound E511-0830]
[4]; tested concentration 1.9 mM
  Solubility at tested concentrations: not soluble
[2]; read-out: DdlB RA
  remaining activity at 1900 µM: 101%

## Cc1cccc(Nc2c(-c3ccccc3)c(=O)c2=O)c1 [Compound E470-0476]
[4]; tested concentration 1.9 mM
  Solubility at tested concentrations: not soluble
[2]; read-out: DdlB RA
  remaining activity at 1900 µM: 43%

## COCc1cn(C2CNC2)nn1 [Compound 8]
[3]
  remaining activity at 5000 µM: 100%
[2]; [6]
  remaining activity at 5000 µM: 95%

## COc1cccc(NC2=NS(=O)(=O)c3ccccc32)c1 [Compound 8005-1580]
[1]; tested concentration 1.7 mM
  Solubility at tested concentrations: not soluble
[2]; [5]
  remaining activity at 1700 µM: 50%

## Cc1ccccc1S(=O)(=O)Nc1cnc2c(c1)CCC2 [Compound T157-0058]
[1]; tested concentration 2.1 mM
  Solubility at tested concentrations: not soluble
[2]; [5]
  remaining activity at 2100 µM: 48%

## COc1ccc(Cc2ccc(F)cc2)cc1B(O)O [Compound 8020-3675]
[4]; tested concentration 1.9 mM
  Solubility at tested concentrations: not soluble
[2]; read-out: DdlB RA
  remaining activity at 1900 µM: 52%

## O=C(O)c1cc(-c2ccccc2)nc2c(Cl)cnn12 [Compound Y504-7719]
[1]; tested concentration 2.2 mM
  Solubility at tested concentrations: not soluble
[2]; [5]
  remaining activity at 2200 µM: 90%

## O=C(O)c1cnn2c(-c3ccco3)ccnc12 [Compound Y504-8728]
[4]; tested concentration 2.2 mM
  Solubility at tested concentrations: not soluble
[2]; read-out: DdlB RA
  remaining activity at 2200 µM: 56%

## O=S(=O)(c1ccccc1)N1CCOc2ccccc21 [Compound Z606-0391]
[1]; tested concentration 2.0 mM
  Solubility at tested concentrations: not soluble
[2]; [5]
  remaining activity at 2000 µM: 97%

## O=C(O)c1cc(-c2ccc3ccccc3c2)[nH]n1 [Compound R052-2028]
[4]; tested concentration 2.1 mM
  Solubility at tested concentrations: not soluble
[2]; read-out: DdlB RA
  remaining activity at 2100 µM: 50%

## COC(=O)c1cc2occc2n1Cc1ccccc1Cl [Compound C777-0071]
[1]; tested concentration 1.7 mM
  Solubility at tested concentrations: not soluble
[2]; [5]
  remaining activity at 1700 µM: 82%

## Cc1noc(C)c1C(=O)NCC1Cn2cccc2CN1C (stereo not drawn) [Compound 5]
[3]
  remaining activity at 5000 µM: 6%
[2]; at 2.5 mM, read-out: DdlB inhibition, RA (Residual Activity)
  remaining activity at 2500 µM: 28%

## O=C(O)c1cnc2ccc(OC(F)(F)F)cc2c1O [Compound Y042-3162]
[1]; tested concentration 1.8 mM
  Solubility at tested concentrations: not soluble
[2]; fragment library screening, read-out: DdlB RA
  remaining activity at 1800 µM: -5%

## Cc1ccc(C)c(S(=O)(=O)N2CCCC(C)C2)c1 (stereo not drawn) [Compound Y206-4328]
[1]; tested concentration 2.2 mM
  Solubility at tested concentrations: not soluble
[2]; [5]
  remaining activity at 2200 µM: 116%

## CCc1cc(C(=O)N2CC3(C)CC2CC(C)(C)C3)no1 (stereo not drawn) [Compound C226-2780]
[1]; tested concentration 2.2 mM
  Solubility at tested concentrations: not soluble
[2]; [5]
  remaining activity at 2200 µM: 25%

## O=C(Nc1ccccc1F)NC1COc2ccccc2C1 (stereo not drawn) [Compound G765-0058]
[1]; tested concentration 1.7 mM
  Solubility at tested concentrations: not soluble
[2]; [5]
  remaining activity at 1700 µM: 93%

## O=C1CSC(c2ccccc2)N1c1ccccc1 (stereo not drawn) [Compound 2339-2195]
[4]; tested concentration 2.0 mM
  Solubility at tested concentrations: not soluble
[2]; read-out: DdlB RA
  remaining activity at 2000 µM: 103%

## CC1c2cccn2CCN1C(=O)Nc1ccccc1Cl (stereo not drawn) [Compound G551-0008]
[1]; tested concentration 1.7 mM
  Solubility at tested concentrations: not soluble
[2]; [5]
  remaining activity at 1700 µM: 112%

## O=C(NCCc1ccco1)C1COc2ccccc2C1 (stereo not drawn) [Compound G668-0290]
[1]; tested concentration 2.2 mM
  Solubility at tested concentrations: not soluble
[2]; [5]
  remaining activity at 2200 µM: 70%

## O=C(O)c1cnc2cc(Cl)ccc2c1O [Compound Y042-3116]
[4]; tested concentration 2.2 mM
  Solubility at tested concentrations: not soluble
[2]; read-out: DdlB RA
  remaining activity at 2200 µM: 44%

## O=C1CSC(c2ccccc2)N1CCc1ccccc1 (stereo not drawn) [Compound 1410-0151]
[4]; tested concentration 1.8 mM
  Solubility at tested concentrations: not soluble
[2]; read-out: DdlB RA
  remaining activity at 1800 µM: 134%
